Assay results reported in patent publication US20130095122A1, “Peptides or Antibodies Which Bind to Melanoma Inhibitory Activity (MIA) Protein” (priority 2010, published 2013).

Columns and labels:
[1] = test system: murine B16 melanoma cells; assay: In vivo metastasis assay, wt B16 cells injected into spleen, i.v. AR71 treatment; design: species or system mice; settings: i.v. 50 μg every 24 h
Experimental: Additionally, 1×10^5 wt mouse melanoma B16 cells suspended in a solution containing AR71 (1 mg/mL) and 0.9% NaCl, or NaCl alone for the control mice, respectively, were injected into the spleen of each animal (n=8 for treated mice, as well as for control without AR71). Peptide AR71 was injected i.v. (50 μg every 24 h). After nine days, the mice were sacrificed and the livers were excised. Following formalin fixation, tissues were embedded in paraffin. Afterwards, sections were prepared and stained using hematoxylin and eosin before being subjected to histological analysis.
Therefore, wild type murine B16 melanoma cells were injected into the spleen of C57B16 mice with the mice being subsequently treated with i.v. injections of AR71 (50 μg every 24 h). After nine days, the mice were sacrificed, the livers were resected and again tissue sections were prepared. […] Four representative histological liver sections (hematoxylin and eosin stained) of untreated and treated mice, respectively, are shown in FIG. 4E.

MIA = biological target: T1, MIA (Homo sapiens, UniProt Q16674); assay: NMR titration of 15N-labeled MIA with peptide; type: binding; settings: unlabeled peptide, increasing amounts
T1 sequence (Q16674 25-131): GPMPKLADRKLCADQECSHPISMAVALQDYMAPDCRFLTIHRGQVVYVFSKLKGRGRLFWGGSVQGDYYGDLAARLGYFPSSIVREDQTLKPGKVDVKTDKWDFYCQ
Experimental: All spectra were recorded at 300 K and pH 7 on a Bruker DRX600 spectrometer equipped with a pulsed field gradient triple resonance probe. Water suppression in experiments recorded on samples in H2O was achieved by incorporation of a Watergate sequence into the various pulse sequences.^28-30 2D ^1H-^15N HSQC spectra with reduced signal loss due to fast exchanging protons were recorded using procedures described previously.^31 All spectra were processed with NMRPipe and analyzed with NMRView.^32-33 Data handling was performed with NMRView. Structure visualisation and superimpositions were done with PyMol (Delano, W. L., The PyMol Molecular Graphics System (2002) Delano Scientific, Palo Alto, Calif., USA).
The NMR titration of MIA with AR71 consisted of monitoring changes in chemical shifts and line widths of the backbone amide resonances of uniformly ^15N-enriched MIA samples as a function of ligand concentration.^34-37

[2] = test system: murine B16 melanoma cells; assay: In vivo metastasis assay, Sig-AR71-HisTag expressing B16 clone injected into spleen; settings: mice injected with Sig-AR71-HisTag expressing clone
Experimental: To determine the effect of peptide AR71 on the metastatic potential of murine B16 melanoma cells in vivo, a previously developed mouse metastases model was used.^19 1×10^5 cells of the AR71-HisTag expressing B16 cell clone AR71-His K4 as well as the corresponding mock control cells were injected into the spleen of mice (n=8 for mock control cells as well as for AR71-HisTag K4 cells, respectively). After nine days, mice were sacrificed, the livers were resected and the number and size of visible black tumor nodules on the surface of the livers was noticed. Tissues were fixed in formalin and afterwards paraffin embedded sections were hematoxylin and eosin stained for histological analysis.
Nine days after injection of the cells into the spleen, the mice were sacrificed, the livers were resected and tissue sections were prepared. Here, the inventors used the stably transfected murine B16 melanoma cells with a Sig-AR71-HisTag containing construct. […] The interference of AR71-HisTag with MIA-MIA interaction was also confirmed in the HTFP assay using wells coated with MIA-biotin (data not shown). Subsequently, a Sig-AR71-HisTag clone as well as a corresponding mock control was injected into the spleen of C57B16 mice, respectively. […]

Mel Im melanoma cells = assay: Boyden chamber invasion assay (MIA activity); type: cell-based, human
Experimental: Invasion assays were performed in Boyden Chambers containing polycarbonate filters with 8-μm pore size (Neuro Probe, Gaithersburg, Md., USA) essentially as described previously.^13 Filters were coated with matrigel, a commercially available reconstituted basement membrane (diluted 1:3 in H2O; BD Bioscience, Bradford, Mass., USA). The lower compartment was filled with fibroblast-conditioned medium used as a chemo attractant. Mel Im melanoma cells were harvested by trypsinization for 2 min at RT, resuspended in DMEM without FCS at a density 2.5×10^4 cells/mL, and placed in the upper compartment of the chamber. Except for the control experiment with untreated cells and experiments where cells were only treated with the respective peptide, MIA was added to the cell suspension at a final concentration of 200 ng/mL. Peptide AR71 (sequence: Ac-FHWRYPLPLPGQ-NH2) was used at a final concentration of 1 μM. MIA expressing murine B16 melanoma cells stably co-transfected with Sig-AR71-HisTag containing pCMX-PL1 vector^27 and an antibiotic resistance comprising plasmid (pCDNA3), and the respective mock control were also investigated for their ability to migrate. Therefore, cells were harvested by trypsinization for 2 min at RT, resuspended in DMEM without FCS at a density 2.5×10^4 cells/mL, and placed in the upper compartment of the chamber. After incubation at 37° C. for 4 h filters were removed. Cells adhering to the lower surface of the filter were fixed, stained, and counted. Experiments were carried out in triplicates and repeated at least three times.

“Ac-FHWRYPLPLPGQ-NH2 [AR71, FHWRYPLPLPGQ]” was tested, and the “adverse effects on other organs and tissues” value ([1]; nine days) was “no adverse effects on other organs and tissues were observed”, the “average number of metastases in the liver compared to untreated control mice” value ([1]; nine days (FIG. 4D)) was “significant reduction of the average number of metastases in the liver” and the “binding of peptide to MIA (chemical shift perturbations)” value (MIA) was “MIA binds to this peptide ligand”. For the same substance, the “adverse effects on other organs and tissues” value [2] was “No adverse effects”, the “neutralization of the MIA effect on cell invasion” value (Mel Im melanoma cells; MIA 200 ng/mL pre-incubated with peptide 1 μM, Mel Im cells (FIG. 2C)) was “complete neutralization of the effect caused by MIA” and the “migratory behaviour of cells treated with peptide alone” value (Mel Im melanoma cells; peptide in absence of MIA, Mel Im cells) was “does not influence the migratory behaviour of melanoma cells”.
